According to the supplement of paper PMC13380429:
± gives the standard deviation of the averaged measurements.

What was measured:
Conditions in all cases: 72 h
HepG2 [1] = test: cell viability relative to DMSO; higher = less toxic
Vero E6 [2] = test: as above
Caco-2 [3] = test: as above
Calu-3 [4] = test: as above
U2OS [5] = test: as above
HepG2 [6] = test: relative viability EC50 (midpoint between 100% and the lowest measured viability); higher = less toxic
Vero E6 [7] = test: as above
Caco-2 [8] = test: as above
Calu-3 [9] = test: as above
U2OS [10] = test: as above
HepG2 [11] = test: drug sensitivity score (DSS) for viability; higher = more toxic; extreme values may be limits of the assay
Vero E6 [12] = test: as above
Caco-2 [13] = test: as above
Calu-3 [14] = test: as above
U2OS [15] = test: as above

SMILES | cell viability (HepG2 [1]; 1 nM) [%] | cell viability (HepG2 [1]; 10 nM) [%] | cell viability (HepG2 [1]; 100 nM) [%] | cell viability (HepG2 [1]; 1000 nM) [%] | cell viability (HepG2 [1]; 10000 nM) [%] | cell viability (Vero E6 [2]; 1 nM) [%] | cell viability (Vero E6 [2]; 10 nM) [%] | cell viability (Vero E6 [2]; 100 nM) [%] | cell viability (Vero E6 [2]; 1000 nM) [%] | cell viability (Vero E6 [2]; 10000 nM) [%] | cell viability (Caco-2 [3]; 1 nM) [%] | cell viability (Caco-2 [3]; 10 nM) [%] | cell viability (Caco-2 [3]; 100 nM) [%] | cell viability (Caco-2 [3]; 1000 nM) [%] | cell viability (Caco-2 [3]; 10000 nM) [%] | cell viability (Calu-3 [4]; 1 nM) [%] | cell viability (Calu-3 [4]; 10 nM) [%] | cell viability (Calu-3 [4]; 100 nM) [%] | cell viability (Calu-3 [4]; 1000 nM) [%] | cell viability (Calu-3 [4]; 10000 nM) [%] | cell viability (U2OS [5]; 1 nM) [%] | cell viability (U2OS [5]; 10 nM) [%] | cell viability (U2OS [5]; 100 nM) [%] | cell viability (U2OS [5]; 1000 nM) [%] | cell viability (U2OS [5]; 10000 nM) [%] | relative viability EC50 (HepG2 [6]) [µM] | relative viability EC50 (Vero E6 [7]) [µM] | relative viability EC50 (Caco-2 [8]) [µM] | relative viability EC50 (Calu-3 [9]) [µM] | relative viability EC50 (U2OS [10]) [µM] | drug sensitivity score (HepG2 [11]) | drug sensitivity score (Vero E6 [12]) | drug sensitivity score (Caco-2 [13]) | drug sensitivity score (Calu-3 [14]) | drug sensitivity score (U2OS [15])
c1ccc(Cn2c(-c3ccc(OC[C@H](C4CCNCC4)n4c(-c5ccccc5)nc5ccccc54)cc3)nc3ccccc32)cc1 [deltarasin] | 99.7 | 100 | 95 | 110 | -0.3 | 92.9 | 99.3 | 94 | 95.4 | -0.1 | 98.6 | 87.8 | 104 | 95.9 | 2.1 | 105 | 102 | 102 | 107 | 0.1 | 99.9 | 93.9 | 98.7 | 99.9 | -0.3 | 3.62 | 2.8 | 2.85 | 3.51 | 3.14 | 4.9 | 6.2 | 6 | 5.1 | 5.6
CC[N+](CC)(CC(=O)Nc1c(C)cccc1C)Cc1ccccc1 [denatonium-benzoate] | 100 | 99.3 | 108 | 100 | 116 | 95.1 | 99.2 | 95.3 | 88.9 | 111 | 100 | 102 | 99.8 | 110 | 112 | 96.7 | 101 | 98.3 | 92.8 | 105 | 91 | 96.1 | 95.9 | 103 | 104 | > 10 | > 10 | > 10 | > 10 | > 10 | 0 | 0 | 0 | 0 | 0
CC/C(=C(/CC)c1ccc(O)cc1)c1ccc(O)cc1 [diethylstilbestrol] | 111 | 98.8 | 103 | 98.8 | 106 | 95.1 | 99.8 | 91.2 | 98.3 | 107 | 97.7 | 87.3 | 107 | 106 | 81.5 | 106 | 96.7 | 114 | 103 | 109 | 98.6 | 94 | 99.5 | 94.3 | 96.8 | > 10 | > 10 | > 10 | > 10 | > 10 | 0 | 0 | 0.3 | 0 | 0
N[C@@H](C(=O)O)c1cc(O)cc(O)c1 [dihydroxyphenylglycine] | 95.8 ± 10 | 92 ± 9.4 | 87.9 ± 4.8 | 98.2 ± 2.4 | 102 ± 8.4 | 99.4 ± 5.7 | 97.5 ± 7 | 98.5 ± 1.9 | 99.6 ± 5.4 | 95.8 ± 4.7 | 102 ± 3.8 | 94.9 ± 1.1 | 92.4 ± 7.5 | 90.8 ± 4.5 | 103 ± 5 | 104 ± 5.4 | 90.5 ± 9.7 | 102 ± 1.1 | 102 ± 6.4 | 105 ± 9.4 | 102.7 ± 0.85 | 97.2 ± 2.8 | 103 | 98.8 ± 0.42 | 101 ± 2 | > 10 | > 10 | > 10 | > 10 | > 10 | 0 | 0 | 0 | 0 | 0
c1ccc2c(c1)[I+]c1ccccc1-2 [diphenyleneiodonium] | 110 | 87.7 | 14.9 | 8.2 | 2.4 | 94.9 | 95 | 65.9 | 38.9 | 25.1 | 92.9 | 97.3 | 72.3 | 61.9 | 37 | 92.6 | 94.5 | 78.8 | 69.1 | 44.9 | 95.4 | 95.1 | 64.8 | 39.3 | 20.7 | 0.0322 | 0.137 | 0.251 | 0.308 | 0.16 | 29.3 | 15.8 | 10.8 | 8.6 | 16
CCOC(=O)[C@H](CCc1ccccc1)N[C@@H](C)C(=O)N1CCC[C@H]1C(=O)O [enalapril] | 103 | 95.4 | 98.4 | 109 | 109 | 97.2 | 99.3 | 98.2 | 100 | 107 | 92.4 | 97.1 | 84.1 | 102 | 100 | 90.5 | 98.3 | 92.2 | 101 | 91.9 | 97.9 | 101 | 99.5 | 98.6 | 102 | > 10 | > 10 | > 10 | > 10 | > 10 | 0 | 0 | 0 | 0 | 0
